The values below come from patent publication US20230159619A1, “COMPOSITIONS AND METHODS FOR REGULATING IMMUNE SYSTEM ACTIVITY” (Olema Pharmaceuticals, Inc., priority 2017, published 2023).

Numbering of substitutions follows the chain as printed.

Assay [1] deals with T1, endoxifen-responsive dominant negative Zap70 polypeptide including an ER(T2) domain having a G400L mutation (Homo sapiens, UniProt P03372, G400L/L544A/M543A).
T1 construct: expressed in transfected cells; host or cells: Jurkat E6.1 cells, transient transfection
T1 sequence (P03372 with tags, fused parts or gaps G400L/M543A/L544A): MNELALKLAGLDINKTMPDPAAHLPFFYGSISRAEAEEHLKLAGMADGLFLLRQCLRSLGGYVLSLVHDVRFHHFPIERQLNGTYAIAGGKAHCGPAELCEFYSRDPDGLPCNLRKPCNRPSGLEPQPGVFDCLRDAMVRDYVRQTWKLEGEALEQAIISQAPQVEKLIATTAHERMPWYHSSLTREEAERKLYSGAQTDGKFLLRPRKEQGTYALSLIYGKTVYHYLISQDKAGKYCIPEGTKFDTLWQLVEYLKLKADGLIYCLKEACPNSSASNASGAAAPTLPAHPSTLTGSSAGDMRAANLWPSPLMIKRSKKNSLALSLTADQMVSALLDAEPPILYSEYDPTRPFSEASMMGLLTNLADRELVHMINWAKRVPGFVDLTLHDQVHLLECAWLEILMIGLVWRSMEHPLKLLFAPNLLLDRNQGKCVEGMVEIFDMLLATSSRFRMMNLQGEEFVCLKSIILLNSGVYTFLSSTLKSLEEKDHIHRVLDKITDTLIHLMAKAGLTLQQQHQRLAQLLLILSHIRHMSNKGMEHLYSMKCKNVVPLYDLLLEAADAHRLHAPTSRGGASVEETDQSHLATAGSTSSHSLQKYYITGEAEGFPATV
The experiment in a line: Endoxifen pIC50 in NFAT-Luciferase reporter assay, G400L construct (Example 8). The class given is cell-based. The note with it: Jurkat E6.1 cells, 10 ng G400L construct, 1:30 Immunocult CD3/CD28/CD2, 19 hours. On the procedure:
(§1) To examine how effective endoxifen is at relieving the inhibition or masking of a dominant negative signaling moiety of a trigger-responsive dominant negative signaling polypeptide by an ER(T2) domain including either a G400V or a G400L mutation, Jurkat E6.1 cells were transiently transfected with 90 ng NFAT-Luciferase reporter construct and 10 ng of a G400V or G400L construct. The transfected cells were stimulated the addition of 1:30 Immunocult CD3/CD28/CD2 tetrameric antibody mixture, and treated with or without endoxifen for 19 hours before assaying for luciferase activity. Results were normalized to maximum TCR stimulation with Immunocult alone, with 0% representing the activity of unstimulated transfected cells. Points represent mean activity from sextuplicate wells with error bars representing SEM. pIC50's were calculated using a variable slope sigmoidal dose-response model using GraphPad Prism.

Assay [2] deals with T2, endoxifen-responsive dominant negative Zap70 polypeptide including an ER(T2) domain having a G400V mutation (Homo sapiens, UniProt P03372, G400V/L544A/M543A).
T2 construct: expressed in transfected cells; host or cells: Jurkat E6.1 cells, transient transfection
T2 sequence (P03372 with tags, fused parts or gaps G400V/M543A/L544A): T1 sequence (P03372 with tags, fused parts or gaps G400L/M543A/L544A) with L415V
The experiment in a line: Endoxifen pIC50 in NFAT-Luciferase reporter assay, G400V construct (Example 8). The format is cell-based. Particulars: Jurkat E6.1 cells, 10 ng G400V construct, 1:30 Immunocult CD3/CD28/CD2, 19 hours. As to the method: as §1
A general note: In a reporter assay the amount or activity of a reporter protein is the signal.

In assay [3] the test system is IL2-Luciferase reporter. The experiment in a line: IL2-Luciferase reporter assay with SHP1(210-595) constructs (Example 12). The class given is cell-based, human. The note with it: Jurkat E6.1 cells, α-CD3 and α-CD28, with or without endoxifen, compared to empty vector controls. On the procedure: To provide a means for assessing T cell activity, a construct containing a reporter gene, such as firefly luciferase (Luc), under the control of an IL2 response element can be used. In the present Example, Jurkat E6.1 cells were transiently transfected with an IL2-Luciferase reporter construct, as well as one of (a) empty vector; (b) an expression construct encoding SHP1(210-595); and (c) an expression construct encoding SHP1(210-595)-ER(T12). Transient transfections were performed using LTX and PLUS transfection reagent (ThermoFisher Scientific) according to manufacturer's protocols.
Transfected cells were treated in the absence or presence of 1:30 dilution of Immunocult CD3/CD28 tetrameric antibody mixture (StemCell Technologies, Canada), which stimulated T-cell activity. Stimulated cells were then further treated with RPMI 1640 media plus 4.8% FBS stripped with charcoal dextran (ThermoFisher Scientific), without Z-endoxifen or with 50 nM Z-endoxifen (Axon-Medchem). Luciferase activity (luminescence) was measured and reported as percent induction of IL2-Luciferase.

The test system of a further assay is NFAT-Luciferase reporter. The assay is described as follows: NFAT-Luciferase reporter assay with SHP1(210-595) constructs, endoxifen dose response (FIG. 31). The format is cell-based, human. The note with it: Jurkat E6.1 cells, 1:40 Immunocult CD3/CD28, varying amounts of Z-endoxifen. The source says:
(§2) Reporter constructs included firefly luciferase (Luc) under the control of an NFAT response element and firefly luciferase (Luc) under the control of an IL2 response element. Data presented in the first panel is from Jurkat E6.1 cells transiently transfected with an NFAT-Luciferase reporter construct, as well as one of (a) empty vector; (b) an expression construct encoding SHP1(210-595); and (c) an expression construct encoding SHP1(210-595)-ER(T12). Data presented in the second panel is from Jurkat E6.1 cells transiently transfected with an IL2-Luciferase reporter construct, as well as one of (a) empty vector; (b) an expression construct encoding SHP1(210-595); and (c) an expression construct encoding SHP1(210-595)-ER(T12). Transient transfections were performed using LTX and PLUS transfection reagent (ThermoFisher Scientific) according to manufacturer's protocols. Transfected cells were treated in the presence of 1:40 dilution of Immunocult CD3/CD28 tetrameric antibody mixture (StemCell Technologies, Canada), which stimulated T-cell activity. Stimulated cells were then further treated with RPMI 1640 media plus 4.8% FBS stripped with charcoal dextran (ThermoFisher Scientific), with varying amounts of Z-endoxifen (Axon-Medchem) as indicated in FIG. 31. Luciferase activity (luminescence) was measured and reported as percent induction of IL2-Luciferase.

The test system of assay [4] is IL2-Luciferase reporter. The experiment in a line: IL2-Luciferase reporter assay with SHP1(210-595) constructs, endoxifen dose response (FIG. 31). The format is cell-based, human. Particulars: Jurkat E6.1 cells, 1:40 Immunocult CD3/CD28, varying amounts of Z-endoxifen.
Excerpt: as §2

A word on the IC50: it is the concentration that inhibits the measured activity by half. Lower therefore signals greater potency in that assay. Consider `CC/C(=C(\c1ccc(O)cc1)c1ccc(OCCNC)cc1)c1ccccc1` [endoxifen], for which the figures for the IC50 in assay [1] and in assay [2] were 1.58 nM and 6.31 nM, respectively.

As to “SHP1(210-595): constitutively active SHP1 phosphatase signaling moiety, SEQ ID NO: 23”, the “luciferase reporter expression (percent induction of IL2-Luciferase)” value with IL2-Luciferase reporter [3] is “substantially reduced expression of luciferase reporter”. In addition, the “inhibition of NFAT-Luciferase reporter expression” value with NFAT-Luciferase reporter was “endoxifen-independent manner”. For the same molecule, the “inhibition of IL2-Luciferase reporter expression” value in the assay on IL2-Luciferase reporter [4] is listed as “endoxifen-independent manner”.
